Like-named read-outs stand apart in the source and are kept apart here.
Assays:
[1] = compared with albuterol; cited from earlier work
[2] = Pharmacokinetics and bioavailability in minipigs after SC administration (Example 8); format: in vivo, Gottingen minipig; conditions: for AUC(0-inf) / Cmax / half-life / Tmax: Gottingen, minipig, plasma, 4 ug/kg
Protocol: Plasma concentrations of salmeterol were monitored in a male and a female Gottingen minipig after SC administration of salmeterol xinafoate. SC dose of 4 μg/kg salmeterol xinafoate was administered as a single bolus dose. […] Samples were processed to plasma by centrifugation under refrigeration and stored frozen at approximately −70° C. (±15° C.) until analysis.
Other calculations were done using Microsoft Excel® XP. The bioanalytical and pharmacokinetic data were reported to 3 significant figures.

[3] = minipig, in vivo
[4] = system: subcutaneous fat thickness; test: Subcutaneous fat thickness by 2D-ultrasound (Example 7)
inguinal fat pad = test: Inguinal fat pad weight after SC injection into the rat inguinal fat pad (Example 6); format: in vivo, Sprague-Dawley rats
Protocol: Mature male Sprague-Dawley rats weighing approximately 500 g were lightly anesthetized with 4% isoflurane. Test article injections (drug vehicle, different doses of salmeterol xinafoate) were injected SC into the right inguinal fat pad in a volume of 0.4 mL. An equal volume of drug vehicle was injected into the left inguinal fat pad. […] Approximately 24 hours after the last injection, rats were anesthetized, sacrificed and the right and left fat pads harvested and weighed. The change in fat pad weight (Right vs. Left) was calculated and expressed as a percent change in inguinal fat pad weight (% change IFP=(Right side−Left side)×100/Left side).

[5] = SC single site 4 μg/kg, female 2-0623
[6] = SC single site 4 μg/kg, male 1-0771

Q: For `OCc1cc(C(O)CNCCCCCCOCCCCc2ccccc2)ccc1O` (racemic) [Salmeterol, ±2-(hydroxymethyl)-4-[1-hydroxy-2-[6-(4-phenylbutoxy)hexylamino]ethyl]-phenol], which “lipophilicity relative to albuterol” value [1] is on record?
A: at least 10,000 times

Q: What about the AUC(0-inf) [2, 5] of the same compound?
A: 1.67 ng·h/mL

Q: And the Cmax [2, 5]?
A: 0.433 ng/mL

Q: And the half-life [2, 5]?
A: 494 min

Q: What about the Tmax ([2]; SC single site 4 μg/kg, female 2-0623, read-out: Tmax) of the same compound?
A: 30 min

Q: What about the AUC(0-inf) [2, 6] of the same compound?
A: 2.26 ng·h/mL

Q: And the Cmax [2, 6]?
A: 0.564 ng/mL

Q: What about the half-life [2, 6] of the same compound?
A: 684 min

Q: What about the Tmax ([2]; SC single site 4 μg/kg, male 1-0771, read-out: Tmax) of the same compound?
A: 20 min

Q: And the tlast [2, 5]?
A: 24.0 h

Q: And the tlast [2, 6]?
A: 24.0 h

Q: What about the “salmeterol partition ratio (average plasma Cmax subcutaneous / average plasma Cmax intravenous)” value ([3]; both, Gottingen) of the same compound?
A: 0.1

Q: And the Cmax ([3]; 0.004 ug/kg)?
A: 0 µg/mL

Q: And the plasma concentrations observed ([3]; sc)?
A: Scarce or no plasma concentrations

Q: Which results are given for `OCc1cc(C(O)CNCCCCCCOCCCCc2ccccc2)ccc1O` (stereo not shown) [salmeterol xinafoate]?
A: evaluation of the injection sites ([4]; SC twice per week, 0.05, 0.5 or 5 μg per site): did not reveal any adverse reactions; fat thickness (2D-ultrasound) ([4]; SC twice per week, FIG. 2): dose-related changes in fat thickness; increase of fat thickness ([4]; highest dose (5 ng)): approximately 3%; reduction of total fat thickness ([4]; lowest doses (0.05 and 0.5 ng)): 7-9%; change in inguinal fat pad weight (inguinal fat pad; 0.1, 1, 10 or 100 μg SC into fat pad on 3 consecutive days, right vs left (vehicle) pad, FIG. 1): dose-related reduction in fat pad weight; staining and histological evaluation of the tissue (inguinal fat pad; inguinal fat pad after SC injection, data not shown): reduction in fat cell number and size; absorption following SC administration ([2]; SC 4 μg/kg): rapidly absorbed; Tmax ([2]; both sexes, SC 4 μg/kg, male and female, read-out: Tmax values): 20 to 30 min

From patent US9597531B2, “Selective, lipophilic, and long-acting beta agonist monotherapeutic formulations and methods for the cosmetic treatment of adiposity and contour bulging” (NEOTHETICS, INC., priority 2010, dated 2017)
